Experimental findings from patent US20180042918A1, “RESPIRATORY INFECTION TREATING AGENT” (KYORIN PHARMACEUTICAL CO., LTD., priority 2015, published 2018) are described below.

SMILES strings stand for the structures. In brackets after ≈: the same amount, converted by molar mass. Marks after values point to notes of the source that are not given here.

One data set deals with S. aureus ATCC29213. In words: Frequency of development of resistant bacteria. In kind it is cell-based, Staphylococcus aureus. Particulars: for FREQUENCY OF DEVELOPMENT OF RESISTANT BACTERIA (AVERAGE OF TWO MEASURED VALUES): about 70 hours. How it is done: (§1) S. aureus ATCC29213 is Staphylococcus aureus, S. pneumoniae ATCC49619 is Streptococcus pneumoniae, and E. coli ATCC25922 is Escherichia coli. […]
(§2) The frequency of development of resistant bacteria was calculated by dividing the number of colonies developed on an agar medium having each drug concentration by the number of initially inoculated bacteria.

The subject of data set [1] is E. coli ATCC25922. Kind of data set: microbe, parasite or virus in culture. In kind it is cell-based. As to conditions: Escherichia coli.
The subject of another data set is S. pneumoniae ATCC49619. Kind of data set: Frequency of development of resistant bacteria. In kind it is cell-based, Streptococcus pneumoniae. As to conditions: for FREQUENCY OF DEVELOPMENT OF RESISTANT BACTERIA (AVERAGE OF TWO MEASURED VALUES): about 70 hours. The protocol:
as §1, §2

For data set [2], the system named is E. coli ATCC25922. Kind of data set: Frequency of development of resistant bacteria. In kind it is cell-based, Escherichia coli. Particulars: for FREQUENCY OF DEVELOPMENT OF RESISTANT BACTERIA (AVERAGE OF TWO MEASURED VALUES): about 70 hours. How it is done:
as §1, §2

Data set [3] is described as follows: Concentration in tissue (rat, oral administration), radioactivity. In kind it is in vivo. Particulars: SD rat, single oral 10.83 mg/kg; for RADIOACTIVITY CONCENTRATION IN TISSUE, LUNG / RADIOACTIVITY CONCENTRATION IN TISSUE, PLASMA: fasting. How it is done: The compound C (10.83 mg/kg) (solvent: water) was single orally administrated to a SD rat under fasting. 1, 6, and 24 hours after the administration, the lung tissue and the plasma were collected. The lung tissue was dried and treated by a sample oxidizer system (Sample Oxidizer: Model 307, PerkinElmer Inc., glass vial: 20 mL, Wheaton Industries, carbon dioxide absorbent: Carbo-Sorb 8 mL, PerkinElmer Inc., scintillation cocktail: Permafluor 12 mL, PerkinElmer Inc.), and the radioactivity concentration was measured. The plasma was fractionated in a midi-vial (8 mL, PerkinElmer Inc.), 6 mL of scintillation cocktail (Ultima Gold) was added, and the radioactivity concentration was measured. The radioactivity concentration was measured using a liquid scintillation counter (Tri-Carb 2500TR or 2700TR, PerkinElmer Inc.) (average value, n=3).

For the molecule `O=C(O)c1cn(C2CC2)c2cc(N3CCNCC3)c(F)cc2c1=O` [CPFX, ciprofloxacin], the “development of resistant bacteria (in words)” value was “developed” in the data set on S. aureus ATCC29213 (S. aureus ATCC29213, 4 to 16 × MIC); “developed” with S. pneumoniae ATCC49619 (S. pneumoniae ATCC49619, 4 to 16 × MIC); “developed” in the data set with E. coli ATCC25922 [2] (E. coli ATCC25922, 4 to 16 × MIC). Further, the “FREQUENCY OF DEVELOPMENT OF RESISTANT BACTERIA (AVERAGE OF TWO MEASURED VALUES)” value in the data set with S. aureus ATCC29213 (S. aureus ATCC29213, 4 × MIC) is 6.2 × 10^−9*; with S. aureus ATCC29213 (S. aureus ATCC29213, 8 × MIC), 3.1 × 10^−9*; with S. aureus ATCC29213 (S. aureus ATCC29213, 16 × MIC), <2.1 × 10^−9; with S. pneumoniae ATCC49619 (S. pneumoniae ATCC49619, 4 × MIC) it was 1.1 × 10^−8*; in the data set with S. pneumoniae ATCC49619 (S. pneumoniae ATCC49619, 8 × MIC), <1.1 × 10^−8; in the data set with S. pneumoniae ATCC49619 (S. pneumoniae ATCC49619, 16 × MIC), <1.1 × 10^−8. Besides, the “FREQUENCY OF DEVELOPMENT OF RESISTANT BACTERIA (AVERAGE OF TWO MEASURED VALUES)” value in the data set on E. coli ATCC25922 [2] (E. coli ATCC25922, 4 × MIC) is recorded as 1.2 × 10^−8*; with E. coli ATCC25922 [2] (E. coli ATCC25922, 8 × MIC), <1.9 × 10^−9; in the data set with E. coli ATCC25922 [2] (E. coli ATCC25922, 16 × MIC), <1.9 × 10^−9. Also, in the data set on E. coli ATCC25922 [1], the MIC amounted to 8 ng/mL (≈ 0.0241 µM).
`COc1c(N2C[C@H](CNC3CC3)[C@H](F)C2)c(F)cc2c(=O)c(C(=O)O)cn(CCF)c12.Cl` [Compound C, 7-[(3S,4S)-3-{(cyclopropylamino)methyl}-4-fluoropyrrolidine-1-yl]-6-fluoro-1-(2-fluoroethyl)-8-methoxy-4-oxo-1,4-dihydro[2-^14C1]quinoline-3-carboxylic acid hydrochloride]: in data set [3] (1 hr), the “RADIOACTIVITY CONCENTRATION IN TISSUE, LUNG” value is reported as 10.3 μg eq./mL or g; the “RADIOACTIVITY CONCENTRATION IN TISSUE, PLASMA” value was 2.79 μg eq./mL or g; the “TISSUE DISTRIBUTION RATIO, LUNG” value is reported as 3.7. Further, in data set [3] (6 hr), the “RADIOACTIVITY CONCENTRATION IN TISSUE, LUNG” value was 2.44 μg eq./mL or g; the “RADIOACTIVITY CONCENTRATION IN TISSUE, PLASMA” value is recorded as 0.815 μg eq./mL or g; the “TISSUE DISTRIBUTION RATIO, LUNG” value is 3.0. Besides, in data set [3] (24 hr), the “RADIOACTIVITY CONCENTRATION IN TISSUE, LUNG” value is listed as 0.0541 μg eq./mL or g; the “RADIOACTIVITY CONCENTRATION IN TISSUE, PLASMA” value is on record as 0.0294 μg eq./mL or g; the “TISSUE DISTRIBUTION RATIO, LUNG” value is listed as 1.9.
